Seven compounds from patent US5122523A, “N-acylamino acid derivatives and their pharmaceutical compositions” (Banyu Pharmaceutical Co., Ltd., priority 1987, dated 1992) can be followed below.

The IC50 is the point on the concentration scale where inhibition reaches its midpoint. A lower IC50 goes with higher potency.

The nature of data set [1]: Absorption test by oral administration in rats (plasma concentration). The data set is classed as in vivo. As to conditions: rat, rats (n=4), 10 mg/kg oral, read-out: Concentration of the compound in plasma. As to the method:
TEST EXAMPLE 2: Absorption test by oral administration
10 mg/kg of the compound of Example 16 was orally administered to rats (n=4), whereupon the concentration of the compound in the plasma was measured. The concentration in the plasma was calculated by the inhibiting activities against human plasma renin.

Another data set concerns the target T1, human plasma renin (Homo sapiens, UniProt P00797).
T1 construct: from tissue; host or cells: human plasma
T1 sequence (P00797 67-406): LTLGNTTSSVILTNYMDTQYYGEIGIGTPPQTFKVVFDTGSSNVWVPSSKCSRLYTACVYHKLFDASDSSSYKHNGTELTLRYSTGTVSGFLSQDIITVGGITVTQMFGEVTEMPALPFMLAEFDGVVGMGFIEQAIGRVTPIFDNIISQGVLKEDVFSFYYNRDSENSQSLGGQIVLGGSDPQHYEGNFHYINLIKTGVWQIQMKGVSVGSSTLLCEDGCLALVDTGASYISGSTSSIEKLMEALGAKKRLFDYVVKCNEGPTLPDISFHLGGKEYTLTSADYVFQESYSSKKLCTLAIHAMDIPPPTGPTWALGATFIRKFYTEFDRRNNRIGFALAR
Description: Renin inhibiting activities (human plasma, angiotensin I by radioimmunoassay). The data set is classed as biochemical. The conditions noted are these: pH7.4, 37° C., one hour. The protocol: TEST EXAMPLE 1: Renin inhibiting activities
To 156 μl of a 0.2M sodium phosphate buffer solution (pH7.4), 40 μl of a solution mixture of 34 mM 8-hydroxyquinoline and 100 mM disodium ethylenediamine tetraacetate, 4 μl of dimethyl sulfoxide or a dimethyl sulfoxide solution of an inhibitor and 200 μl of human plasma were added and reacted at 37° C. for one hour. Then, pepstatin was added thereto to terminate the reaction, and the amount of the resulting angiotension I was measured by radio immunoassay whereby the inhibiting activity was determined.

In the case of `CCCC[C@H](NC(=O)C(Cc1cccc2ccccc12)CS(=O)(=O)CC)C(=O)N[C@@H](CC1CCCCC1)[C@@H](O)[C@H](O)CN1CCOCC1` (mixture of isomers) [Example 16, (2RS,3RS,4S)-4-{L-N-[3-ethylsulfonyl-2-(1-naphthylmethyl)propionyl]norleucyl}amino-5-cyclohexyl-1-morpholino-2,3-pentandiol], in data set [1] (1/2 hrs), the concentration at 0.5 h worked out at 267 ng/mL. Further, in data set [1] (1/4 hrs), the concentration at 0.25 h was 212 ng/mL. The concentration at 10 min in data set [1] (1/6 hrs) came out at 136 ng/mL. The concentration at 5 min in data set [1] (1/12 hrs) came to 89 ng/mL. For the same compound, in data set [1] (1 hr), the concentration at 1 h was 183 ng/mL. Besides, the concentration at 2 h in data set [1] (2 hrs) was 85 ng/mL. Besides, the concentration at 4 h in data set [1] (4 hrs) was 34 ng/mL. In addition, in data set [1] (8 hrs), the concentration at 8 h was 12 ng/mL. The concentration at 24 h in data set [1] (24 hrs) worked out at 7 ng/mL. Half-maximal inhibition against human plasma renin (IC50) was put at 3.4 nM.
Compound `CCCC[C@H](NC(=O)[C@@H](Cc1cccc2ccccc12)CS(=O)(=O)CC)C(=O)N[C@@H](CC(C)C)[C@@H](O)C[C@@H](CC)C(=O)NCCN1CCOCC1` (single isomer, unassigned) [Example 8, (2R or S,4S,5S)-5-{L-N-[(2R or S)-3-ethylsulfonyl-2-(1-naphthylmethyl)propionyl]norleucyl}amino-2-ethyl-4-hydroxy-7-methyloctanoic acid 2-morpholinoethylamide] came in with an IC50 against human plasma renin of 1.5 nM.
In turn, `CCCC[C@H](NC(=O)C(CCCSCC)Cc1cccc2ccccc12)C(=O)N[C@@H](CC(C)C)[C@@H](O)CC(CC)C(=O)NCC(C)C` (single isomer, unassigned) [Example 12, (2RS,4S,5S)-5-{L-N-[(2R or S)-5-ethylthio-2-(1-naphthylmethyl)pentanoyl]norleucyl}amino-2-ethyl-4-hydroxy-7-methyloctanoic acid isobutylamide] displayed an IC50 at human plasma renin of 9.7 nM. Compared with the last compound, the IC50 is about 6.5-fold higher.
On the same count and under the same terms, the value for `CCCC[C@H](NC(=O)C(Cc1cccc2ccccc12)CS(=O)(=O)c1nnnn1C)C(=O)N[C@@H](CC(C)C)[C@@H](O)C[C@H](CC)C(=O)NCC(C)C` (single isomer, unassigned) [Example 4, (2S,4S,5S)-5-{L-N-[(2R or S)-3-(1-methyltetrazol-5-yl)sulfonyl-2-(1-naphthylmethyl)propionyl]norleucyl}amino-2-ethyl-4-hydroxy-7-methyloctanoic acid isobutylamide] was 0.96 nM; that for `CCCC[C@H](NC(=O)[C@H](Cc1cccc2ccccc12)CS(=O)(=O)CC)C(=O)N[C@@H](CC1CCCCC1)C(O)C(O)CSC` (single isomer, unassigned) [Example 21, (2RS,3R or S,4S)-4-{L-N-[(2S)-3-ethylsulfonyl-2-(1-naphthylmethyl)propionyl]norleucyl}amino-5-cyclohexyl-1-methylthio-2,3-pentanediol] was 8.9 nM; that for `CCCC[C@H](NC(=O)C(Cc1cccc2ccccc12)CS(=O)(=O)c1ncccn1)C(=O)N[C@@H](CC(C)C)[C@@H](O)CC(CC)C(=O)NCC(C)C` (single isomer, unassigned) [Example 2, (2RS,4S,5S)-5-{L-N-[(2R or S)-3-(pyrimidin-2-yl)sulfonyl-2-(1-naphthylmethyl)propionyl]norleucyl}amino-2-ethyl-4-hydroxy-7-methyloctanoic acid isobutylamide] was 0.17 nM.
Still for that read-out and setting: the value for `CCCC[C@H](NC(=O)[C@H](Cc1cccc2ccccc12)CS(=O)(=O)CC)C(=O)N[C@@H](CC(C)C)[C@@H](O)[C@@H](O)CN1CCOCC1` [Example 19, (2S,3R,4S)-4-{L-N-[(2S)-3-ethylsulfonyl-2-(1-naphthylmethyl)propionyl]norleucyl}amino-6-methyl-1-morpholino-2,3-heptanediol] was 8.3 nM.
